Our source for the half-life and IC50 values is paper PMC10488193, “Evaluation of the Chemical Stability, Membrane Permeability and Antiproliferative Activity of Cyclic Diarylheptanoids from European Hornbeam (Carpinus betulus L.)” (International Journal of Molecular Sciences, 2023).

On the set-up of data set [1]: method as in PMID 28074653. As to conditions: ambient temperature, solvolysis and oxidative degradation; cited from earlier work.
For data set [2], the system named is U87 (glioblastoma). In words: In vitro antiproliferative activity, Alamar Blue assay. Conditions: Homo sapiens, read-out: IC50 ± SD. Type of data set: cell-based. The method, then: (§1) For the experiments, the following human cell lines were used: A2058 (melanoma, derived from metastatic site: lymph node), HepG2 (hepatocellular carcinoma), U87 (glioblastoma), HT-29 (colorectal carcinoma) and HL-60 (acute promyelocytic leukaemia). Cell lines were generous gifts from Dr. […] (Department of Experimental Pharmacology, National Institute of Oncology, Budapest, Hungary). […] The cultures were maintained at 37 °C in a humidified atmosphere with 5% CO2. The cells were grown to confluency and then divided into 96-well tissue culture plates (Sarstedt, Nümbrecht, Germany) with an initial cell number of 5000 cells/well. Cells were incubated at 37 °C in a 5% CO2 humidified atmosphere overnight. Before the assay, 50 μL of the supernatant was removed and replaced with a 50 μL serum-free medium (SFM). […] The cells were treated for 24 h with the compounds and negative control cells (no compound control) were treated with SFM only (incubated at 37 °C). […] The percentage of cytostasis was calculated with the following equation: […] Data were evaluated with Excel (version: 365; Microsoft, Redmond, WA, USA) and the curves were defined using Microcal OriginPro (version: 2018; OriginLab, Northampton, MA, USA) software. In each case, two independent experiments were carried out with four parallel measurements and the mean IC50 values together with ±SD were represented. The Excel (version: 365) (Microsoft, Redmond, WA, USA) and Microcal OriginPro (version: 2018) (OriginLab, Northampton, MA, USA) softwares were used for data evaluation.
A general note: Alamar Blue is a resazurin reagent that responds to reducing activity.

Data set [3] concerns A2058 (melanoma, derived from metastatic site: lymph node). Described as above. In kind it is cell-based. Conditions: Homo sapiens. Here is the method:
as §1

Data set [4] has as its system HL-60 (acute promyelocytic leukaemia). Described as above. Type of data set: cell-based. As to conditions: Homo sapiens. Here is the method: as §1
In data set [5] the test system is HT-29 (colorectal carcinoma). Described as above. In kind it is cell-based. As to conditions: Homo sapiens. Here is the method: as §1
Data set [6] concerns HepG2 (hepatocellular carcinoma). Described as above. Type of data set: cell-based. As to conditions: Homo sapiens. The method, then: as §1
The conditions of data set [7]: cited from earlier work.
[8] abbreviates: U87, 24 h treatment, then three days culture, n = 2.
Where [9] appears, read: A2058, 24 h treatment, then three days culture, n = 2, read-out: IC50 ± SD.
Where [10] appears, read: HepG2, 24 h treatment, then three days culture, n = 2, read-out: IC50 ± SD.

Molecules are shown by their SMILES. Like-named read-outs stand apart in the source and are kept apart here.

Usually half-life stands for how long it takes for the measured level to halve. On to `COc1cc(/C=C/C(=O)CC(=O)/C=C/c2ccc(O)c(OC)c2)ccc1O` [Curcumin, curcumin], for which the half-life result in data set [1] is “less than an hour”.

A word on the IC50: it is the concentration that inhibits the measured activity by half. Turning to `COc1cccc2c1C(=O)c1c(O)c3c(c(O)c1C2=O)C[C@@](O)(C(C)=O)C[C@@H]3O[C@H]1C[C@H](N)[C@H](O)[C@H](C)O1` [Dau, daunomycin, reference compound], the concentration for half-maximal inhibition (IC50) came out at 0.4 ± 0.05 µM in data set [2]; 0.16 µM in data set [3] (A2058, read-out: IC50 ± SD); 0.02 ± 0.01 µM in data set [4] (HL-60, read-out: IC50 ± SD); 0.2 ± 0.01 µM in data set [5] (HT-29, read-out: IC50 ± SD); 1.2 ± 0.2 µM in data set [6] (HepG2, read-out: IC50 ± SD).

As to `COc1cc([C@@H]2c3cc4c(cc3[C@@H](O[C@@H]3O[C@@H]5CO[C@@H](C)O[C@H]5[C@H](O)[C@H]3O)[C@H]3COC(=O)[C@H]23)OCO4)cc(OC)c1O` [Etoposide, etoposide, reference compound], the IC50 in data set [2] (setting [8]) was 27 ± 2.3 µM; in data set [3] (setting [9]), 8.9 ± 0.2 µM; in data set [5] (HT-29, 24 h treatment, then three days culture, n = 2, read-out: IC50 ± SD), 18.5 ± 1.7 µM; in data set [6] (setting [10]), 20.9 ± 1.2 µM.

For the molecule `O=C(/C=C/CCc1ccc(O)c(O)c1)CCc1ccc(O)c(O)c1` [Hirsutenone, hirsutenone], the half-life in data set [7] (aqueous solution, 25 °C) is 139 h; in data set [7] (aqueous solution, 50 °C) it was 38.2 h; in data set [7] (room temperature), “less than seven days”.

With `O=C(Nc1ccc(C(F)(F)F)cc1)c1cc(Cl)ccc1O` [Sal, 5-chloro-2-hydroxy-N-[4-(trifluoromethyl)phenyl]benzamide, reference compound], the IC50 amounted to 0.8 ± 0.3 µM in data set [2] (setting [8]); 6.8 ± 1.2 µM in data set [3] (setting [9]); 4.5 ± 0.7 µM in data set [4] (HL-60, 24 h treatment, then three days culture, n = 2, read-out: IC50 ± SD); 5.8 ± 0.7 µM in data set [6] (setting [10]).
